Legend:
[1] = molecular target: human MRP2 (Homo sapiens, UniProt Q92887); test: Vesicular transport assay, inside-out membrane vesicles expressing human MRP2; conditions: for TransportATP/TransportAMP ratio (net transport ratio): 10 min
Method: (§1) Inside-out membrane vesicles (5 mg protein/mL), prepared from insect cells expressing human multidrug resistance-associated protein (MRP) 2, MRP3, MRP4, breast cancer resistance protein (BCRP), bile salt export pump (BSEP), and multidrug resistance protein (MDR) one and rat Mrp2, Mrp4, Bcrp, and Bsep, and vesicles (5 mg protein/mL; prepared from the insect cells expressing no ABC transporter; serving as negative control) were obtained from Genomembrane (Kanazawa, Japan).
(§2) The test Danshen compounds at 100 µM final concentration were separately incubated with the membrane vesicles for 10 min. Buffer C (50 mM MOPS-tris, 70 mM KCl, 7.5 mM MgCl2, pH 7.0) was used for preincubation and incubation, while buffer D (40 mM MOPS-tris, 70 mM KCl, pH 7.0) was used for vesicle washing. The transport rate (pmol/mg protein/min) of the test Danshen compound was calculated using Equation (2): Transport=(CV×VV)/T/WV (2) where C V, V V, T, and W V represent concentration of the compound in vesicular lysates supernatant (μM), volume of the lysates (μL), incubation time (10 min), and amount of vesicle protein amount per well (0.05 mg), respectively. Differential transport of the test Danshen compound between ATP-containing vesicles and AMP-containing vesicles was defined as net transport ratio (TransportATP/TransportAMP ratio). […] All the incubation samples were analyzed by liquid chromatography/mass spectrometry.

[2] = molecular target: human BSEP (Homo sapiens, UniProt O95342); test: Vesicular transport assay, inside-out membrane vesicles expressing human BSEP; conditions: 10 min
Method: as §1, §2

[3] = molecular target: T1, rat Mrp4 (Rattus norvegicus, UniProt F1M3J4); test: Vesicular transport assay, inside-out membrane vesicles expressing rat Mrp4; conditions: for TransportATP/TransportAMP ratio (net transport ratio): 10 min
T1 sequence (F1M3J4 1-1325): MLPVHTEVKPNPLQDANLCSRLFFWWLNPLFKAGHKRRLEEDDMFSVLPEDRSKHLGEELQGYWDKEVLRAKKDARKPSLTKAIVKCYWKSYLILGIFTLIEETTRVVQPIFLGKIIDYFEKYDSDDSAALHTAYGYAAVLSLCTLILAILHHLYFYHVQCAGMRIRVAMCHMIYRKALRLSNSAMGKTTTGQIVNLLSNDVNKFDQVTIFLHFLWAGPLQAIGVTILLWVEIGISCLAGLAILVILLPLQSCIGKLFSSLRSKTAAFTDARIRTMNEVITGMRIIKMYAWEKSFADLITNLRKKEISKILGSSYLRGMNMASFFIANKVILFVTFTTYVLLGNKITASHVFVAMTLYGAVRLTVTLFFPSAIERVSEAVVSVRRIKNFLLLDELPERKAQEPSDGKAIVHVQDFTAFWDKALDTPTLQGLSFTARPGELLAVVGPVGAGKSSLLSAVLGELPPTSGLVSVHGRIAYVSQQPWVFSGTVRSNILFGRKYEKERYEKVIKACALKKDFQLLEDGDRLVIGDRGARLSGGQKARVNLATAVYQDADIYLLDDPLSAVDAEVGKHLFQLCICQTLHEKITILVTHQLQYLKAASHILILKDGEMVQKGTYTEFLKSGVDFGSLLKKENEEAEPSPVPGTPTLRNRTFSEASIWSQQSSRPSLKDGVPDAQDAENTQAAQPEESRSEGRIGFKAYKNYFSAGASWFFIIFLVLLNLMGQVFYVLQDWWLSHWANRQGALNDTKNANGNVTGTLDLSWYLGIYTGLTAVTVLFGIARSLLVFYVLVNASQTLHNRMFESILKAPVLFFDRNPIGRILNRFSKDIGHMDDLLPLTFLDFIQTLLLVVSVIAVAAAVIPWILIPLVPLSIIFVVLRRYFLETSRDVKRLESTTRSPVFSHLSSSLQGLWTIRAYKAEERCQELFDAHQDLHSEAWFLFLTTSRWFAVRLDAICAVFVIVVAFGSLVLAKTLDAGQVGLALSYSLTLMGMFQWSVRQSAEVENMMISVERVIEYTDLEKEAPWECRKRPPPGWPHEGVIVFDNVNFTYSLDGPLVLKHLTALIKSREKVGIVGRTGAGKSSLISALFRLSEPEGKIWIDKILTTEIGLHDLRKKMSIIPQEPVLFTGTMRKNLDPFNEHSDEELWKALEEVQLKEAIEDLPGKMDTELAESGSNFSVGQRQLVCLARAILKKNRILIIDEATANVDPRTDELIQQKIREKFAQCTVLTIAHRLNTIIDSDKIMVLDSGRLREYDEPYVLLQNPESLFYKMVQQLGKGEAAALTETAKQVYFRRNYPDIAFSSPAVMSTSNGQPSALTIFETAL
Method: as §1, §2

[4] = Danshen phenolic acid at 100 μM final concentration, human MRP2 vesicles
[5] = Danshen phenolic acid at 100 μM final concentration, human BSEP vesicles
[6] = Danshen phenolic acid at 100 μM final concentration, rat Mrp4 vesicles

Chain of human MRP2 (Q92887 whole entry): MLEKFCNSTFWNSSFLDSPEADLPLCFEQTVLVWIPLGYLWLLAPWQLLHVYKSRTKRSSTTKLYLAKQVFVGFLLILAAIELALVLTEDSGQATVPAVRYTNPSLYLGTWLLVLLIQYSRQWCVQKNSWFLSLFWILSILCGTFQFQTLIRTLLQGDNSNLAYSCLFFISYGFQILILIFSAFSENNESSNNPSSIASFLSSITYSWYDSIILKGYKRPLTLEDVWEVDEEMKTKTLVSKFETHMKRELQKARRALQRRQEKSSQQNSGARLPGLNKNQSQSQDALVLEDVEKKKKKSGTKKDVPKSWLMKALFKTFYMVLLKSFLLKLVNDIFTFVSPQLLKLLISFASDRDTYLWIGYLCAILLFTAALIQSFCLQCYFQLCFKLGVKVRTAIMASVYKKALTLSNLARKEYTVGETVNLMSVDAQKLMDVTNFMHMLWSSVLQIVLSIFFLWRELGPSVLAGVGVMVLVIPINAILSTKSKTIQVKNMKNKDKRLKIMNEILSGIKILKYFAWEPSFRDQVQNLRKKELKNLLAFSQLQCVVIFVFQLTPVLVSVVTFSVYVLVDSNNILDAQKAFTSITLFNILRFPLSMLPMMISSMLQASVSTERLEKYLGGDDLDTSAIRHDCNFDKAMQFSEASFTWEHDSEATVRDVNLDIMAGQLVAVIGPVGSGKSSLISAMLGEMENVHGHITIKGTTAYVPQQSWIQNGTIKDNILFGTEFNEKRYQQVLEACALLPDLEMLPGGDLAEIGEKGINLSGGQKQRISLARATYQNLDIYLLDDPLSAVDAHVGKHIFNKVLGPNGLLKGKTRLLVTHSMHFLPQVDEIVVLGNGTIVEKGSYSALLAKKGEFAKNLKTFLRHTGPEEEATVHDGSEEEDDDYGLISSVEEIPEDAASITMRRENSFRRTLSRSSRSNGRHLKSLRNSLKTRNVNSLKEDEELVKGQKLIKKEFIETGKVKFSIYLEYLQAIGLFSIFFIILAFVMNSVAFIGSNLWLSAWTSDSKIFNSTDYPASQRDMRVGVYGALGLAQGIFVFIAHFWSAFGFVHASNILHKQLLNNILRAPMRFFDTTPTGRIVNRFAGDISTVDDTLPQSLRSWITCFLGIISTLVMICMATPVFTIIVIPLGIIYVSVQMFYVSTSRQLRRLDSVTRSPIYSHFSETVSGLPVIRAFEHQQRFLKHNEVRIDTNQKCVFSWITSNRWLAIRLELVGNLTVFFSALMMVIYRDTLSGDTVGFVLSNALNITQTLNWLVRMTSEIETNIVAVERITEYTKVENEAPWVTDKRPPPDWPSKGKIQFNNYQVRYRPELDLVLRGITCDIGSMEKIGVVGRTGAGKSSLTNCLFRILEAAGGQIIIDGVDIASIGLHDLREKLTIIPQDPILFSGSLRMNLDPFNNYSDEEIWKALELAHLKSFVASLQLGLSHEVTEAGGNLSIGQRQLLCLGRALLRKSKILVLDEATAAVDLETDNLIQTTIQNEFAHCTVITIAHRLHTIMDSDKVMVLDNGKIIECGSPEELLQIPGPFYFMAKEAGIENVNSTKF
Chain of human BSEP (O95342 whole entry): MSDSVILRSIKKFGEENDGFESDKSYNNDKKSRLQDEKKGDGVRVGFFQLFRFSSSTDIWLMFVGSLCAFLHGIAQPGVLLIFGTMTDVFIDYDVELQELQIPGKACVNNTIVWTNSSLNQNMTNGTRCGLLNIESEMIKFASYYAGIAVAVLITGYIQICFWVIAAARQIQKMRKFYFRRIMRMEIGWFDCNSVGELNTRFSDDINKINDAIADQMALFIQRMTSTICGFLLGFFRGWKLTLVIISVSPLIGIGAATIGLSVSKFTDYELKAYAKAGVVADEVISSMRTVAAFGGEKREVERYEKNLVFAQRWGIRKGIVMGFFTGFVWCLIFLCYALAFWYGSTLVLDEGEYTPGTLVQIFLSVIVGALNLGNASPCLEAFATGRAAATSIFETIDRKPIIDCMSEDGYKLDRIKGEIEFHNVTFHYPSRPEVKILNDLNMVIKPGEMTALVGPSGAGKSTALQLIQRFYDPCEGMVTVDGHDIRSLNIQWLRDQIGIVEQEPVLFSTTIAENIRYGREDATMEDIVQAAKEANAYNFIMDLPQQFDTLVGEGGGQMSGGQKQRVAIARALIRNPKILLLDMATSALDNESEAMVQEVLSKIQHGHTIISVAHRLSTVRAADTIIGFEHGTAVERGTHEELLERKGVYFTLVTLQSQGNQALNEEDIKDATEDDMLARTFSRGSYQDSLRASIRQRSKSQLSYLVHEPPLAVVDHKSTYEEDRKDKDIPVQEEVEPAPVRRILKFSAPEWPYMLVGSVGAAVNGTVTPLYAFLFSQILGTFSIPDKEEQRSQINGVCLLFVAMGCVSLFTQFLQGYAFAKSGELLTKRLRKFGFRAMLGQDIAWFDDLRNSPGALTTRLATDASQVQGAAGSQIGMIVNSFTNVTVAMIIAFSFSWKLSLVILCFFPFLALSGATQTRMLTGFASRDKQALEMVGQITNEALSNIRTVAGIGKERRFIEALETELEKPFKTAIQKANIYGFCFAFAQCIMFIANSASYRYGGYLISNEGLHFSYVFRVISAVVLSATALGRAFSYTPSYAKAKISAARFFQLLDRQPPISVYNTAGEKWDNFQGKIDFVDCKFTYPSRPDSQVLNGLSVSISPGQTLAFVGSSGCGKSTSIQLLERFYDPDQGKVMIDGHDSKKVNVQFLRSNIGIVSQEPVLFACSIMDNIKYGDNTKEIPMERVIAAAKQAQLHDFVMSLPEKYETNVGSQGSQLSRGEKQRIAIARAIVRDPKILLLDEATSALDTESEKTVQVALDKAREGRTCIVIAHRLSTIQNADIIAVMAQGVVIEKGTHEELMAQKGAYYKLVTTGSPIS

## O=C(/C=C/c1ccc(O)c(O)c1)O[C@H](Cc1ccc(O)c(O)c1)C(=O)O [Rosmarinic acid, rosmarinic acid]
[1]; human, 100 μM, pH 7
  TransportATP/TransportAMP ratio (net transport ratio): 1.13 ± 0.34
[2]; human, 100 μM, pH 7
  TransportATP/TransportAMP ratio (net transport ratio): 1.03 ± 0.09
[3]
  substrate of rat Mrp4: substrates
[3]; rat, 100 μM, pH 7
  TransportATP/TransportAMP ratio (net transport ratio): 4.79 ± 0.38

## O=C(O)c1ccc(O)c(O)c1 [Protocatechuic acid, protocatechuic acid]
[1]; [4]
  TransportATP/TransportAMP ratio (net transport ratio): 0.94 ± 0.31
[2]; [5]
  TransportATP/TransportAMP ratio (net transport ratio): 0.99 ± 0.21
[3]; [6]
  TransportATP/TransportAMP ratio (net transport ratio): 1.17 ± 0.06

## O=C(/C=C/c1ccc(O)c(O)c1/C=C/c1ccc(O)c(O)c1)O[C@H](Cc1ccc(O)c(O)c1)C(=O)O [Salvianolic acid A, salvianolic acid A]
[1]; human, 100 μM, pH 7
  TransportATP/TransportAMP ratio (net transport ratio): 1.42 ± 0.31
[2]; human, 100 μM, pH 7
  TransportATP/TransportAMP ratio (net transport ratio): 1.32 ± 0.26
[3]; rat, 100 μM, pH 7
  TransportATP/TransportAMP ratio (net transport ratio): 2.09 ± 0.25

## O=C(O)Cc1c(/C=C/C(=O)O[C@H](Cc2ccc(O)c(O)c2)C(=O)O)ccc(O)c1O [Salvianolic acid D, salvianolic acid D]
[1]; [4]
  TransportATP/TransportAMP ratio (net transport ratio): 1.51 ± 0.73
[2]; [5]
  TransportATP/TransportAMP ratio (net transport ratio): 1.19 ± 0.35
[3]
  substrate of rat Mrp4: substrates
[3]; [6]
  TransportATP/TransportAMP ratio (net transport ratio): 11.1 ± 0.2

## salvianolic acid B
[1]
  substrate of human MRP2: substrates
[1]; [4]
  TransportATP/TransportAMP ratio (net transport ratio): 6.21 ± 1.32
[2]; [5]
  TransportATP/TransportAMP ratio (net transport ratio): 1.43 ± 0.32
[3]; [6]
  TransportATP/TransportAMP ratio (net transport ratio): 2.15 ± 0.32

## O=C(/C=C/c1ccc(O)c2c1[C@H](C(=O)O)[C@@H](c1ccc(O)c(O)c1)O2)O[C@H](Cc1ccc(O)c(O)c1)C(=O)O [Lithospermic acid, lithospermic acid]
[1]
  substrate of human MRP2: substrates
[1]; [4]
  TransportATP/TransportAMP ratio (net transport ratio): 5.02 ± 1.67
[2]; [5]
  TransportATP/TransportAMP ratio (net transport ratio): 0.83 ± 0.20
[3]; [6]
  TransportATP/TransportAMP ratio (net transport ratio): 1.46 ± 0.01

Reference: paper PMC9127186, “Molecular Basis Underlying Hepatobiliary and Renal Excretion of Phenolic Acids of Salvia miltiorrhiza Roots (Danshen)” (Frontiers in Pharmacology, 2022)
